Laboratory results taken from the CheMixHub ionic liquid set.
“And” between values parts separate entries of the source, which are not always exact repeats. Equal values may be shown once.

Test: xn = mol fraction of the nth substance listed

CCCC[n+]1ccn(C)c1.F[B-](F)(F)F + CS(C)=O
100 kPa
Settings | electrical conductivity, 298.15 K [S/m] | viscosity, 298.15 K | viscosity, 303.15 K [mPa·s] | viscosity, 308.15 K [mPa·s] | viscosity, 313.15 K [mPa·s]
x1 = 0.0192 | – | 3.4 mPa·s | 2.9 | 2.46 | 2.17
x1 = 0.0447 | – | 5.06 mPa·s | 4.12 | 3.28 | 2.8
x1 = 0.0661 | – | 6.29 mPa·s | 5.13 | 3.85 | 3.2
x1 = 0.0722 | 0.974 | 3.144 mPa·s | – | – | –
x1 = 0.0974 | – | 8.27 mPa·s | 6.5 | 4.89 | 4.03
x1 = 0.1622 | – | 12.79 mPa·s | 9.68 | 6.72 | 5.22
x1 = 0.1764 | – | 5.489 mPa·s | – | – | –
x1 = 0.2138 | – | 16.68 mPa·s | 12.57 | 8.83 | 6.86
x1 = 0.2145 | 1.016 | 6.836 mPa·s | – | – | –
x1 = 0.2889 | – | 22.73 mPa·s | 17.15 | 11.9 | 9.21
x1 = 0.3225 | 0.831 | 11.38 mPa·s | – | – | –
x1 = 0.3735 | – | 30.07 mPa·s | 22.87 | 15.97 | 12.58
x1 = 0.4189 | 0.672 | 17.2 mPa·s | – | – | –
x1 = 0.4431 | – | 36.58 mPa·s | 27.97 | 19.78 | 15.65
x1 = 0.5247 | – | 44.65 mPa·s | 34.44 | 24.63 | 19.75
x1 = 0.607 | 0.436 | 34 mPa·s | – | – | –
x1 = 0.6172 | – | 54.3 mPa·s | 42.3 | 30.73 | 24.85
x1 = 0.6557 | 0.352 | 38.87 mPa·s | – | – | –
x1 = 0.6772 | – | 61 mPa·s | 47.6 | 34.97 | 28.49
x1 = 0.7513 | – | 69.5 mPa·s | 54.7 | 40.59 | 33.35
x1 = 0.7958 | – | 75 mPa·s | 59.2 | 44.05 | 36.37
x1 = 0.8283 | 0.284 | – | – | – | –
x1 = 0.8516 | – | 81.9 mPa·s | – | 48.7 | 40.3
x1 = 0.8954 | – | 87.5 mPa·s | 69.6 | 52.5 | 43.72
x1 = 0.9155 | – | 82.7 mPa·s | – | – | –
x1 = 0.9373 | – | 92.9 mPa·s | 74.1 | 56.2 | 46.9
x1 = 0.9687 | – | 97.1 mPa·s | 77.5 | 59 | 49.4
x1 = 1 | 0.243 | 101 mPa·s and 104.7 mPa·s | 80.7 | 61.5 | 51.5

O + C[C@@H](O)[C@H](N)C(=O)O + CCCCCCCCCCCCCCCC[n+]1ccccc1.[Cl-]
Settings | electrical conductivity [S/m]
308.15 K, 101 kPa, x2 = 0, x3 = 0 | 6.7e-05

O + C[C@H](N)C(=O)O + CCCCCCCCCCCCCCCC[n+]1ccccc1.[Cl-]
Settings | electrical conductivity [S/m]
308.15 K, 101 kPa, x2 = 0, x3 = 0 | 6.7e-05

CCCC[n+]1ccn(C)c1.F[B-](F)(F)F + Cc1ccccc1
viscosity [mPa·s], 101 kPa
Settings | x2 = 0.05 | x2 = 0.1 | x2 = 0.2 | x2 = 0.3 | x2 = 0.33
298.15 K | 80.4 | 74.5 | 59.9 | 47.9 | 44.8
300.65 K | 54.8 | 50.7 | 39.3 | 29.3 | 27.8
303.15 K | 41.3 | 38.1 | 29.2 | 21.6 | 20.46
305.65 K | 33.3 | 30.6 | 23.5 | 17.49 | 16.56
308.15 K | 28 | 25.7 | 19.89 | 15 | 14.18
310.65 K | 24.4 | 22.36 | 17.41 | 13.35 | 12.59
313.15 K | 21.75 | 19.9 | 15.63 | 12.18 | 11.46
315.65 K | 19.74 | 18.04 | 14.3 | 11.31 | 10.62
318.15 K | 18.18 | 16.59 | 13.26 | 10.64 | 9.97
320.65 K | 16.93 | 15.43 | 12.44 | 10.11 | 9.46
323.15 K | 15.91 | 14.49 | 11.76 | 9.68 | 9.05
325.65 K | 15.07 | 13.71 | 11.21 | 9.32 | 8.7
328.15 K | 14.36 | 13.05 | 10.74 | 9.02 | 8.41
330.65 K | 13.75 | 12.48 | 10.35 | 8.77 | 8.17
333.15 K | 13.23 | 12 | 10 | 8.55 | 7.96
335.65 K | 12.77 | 11.58 | 9.7 | 8.36 | 7.77
338.15 K | 12.37 | 11.21 | 9.44 | 8.19 | 7.61

CCCC[n+]1ccn(C)c1.F[B-](F)(F)F + ClC(Cl)Cl
298.15 K, 101 kPa, x2 = 0
Settings | electrical conductivity [S/m] | viscosity [mPa·s]
– | 0.194 | 116

CCCC[n+]1ccn(C)c1.F[B-](F)(F)F + ClCCl
298.15 K, 101 kPa, x2 = 0
Settings | electrical conductivity [S/m] | viscosity [mPa·s]
– | 0.194 | 116

CCCC[n+]1ccn(C)c1.F[B-](F)(F)F + NC(N)=O + O
Settings | viscosity [mPa·s]
298.15 K, 100 kPa, x2 = 0, x3 = 0.9487 | 1.99

CCCC[n+]1ccn(C)c1.F[B-](F)(F)F + NC=O
101 kPa, x1 = 1
Settings | viscosity [mPa·s]
308.15 K | 58.4
318.15 K | 38.7

O + NCC(=O)O + CCCCCCCCCCCCCCCC[n+]1ccccc1.[Cl-]
Settings | electrical conductivity [S/m]
308.15 K, 101 kPa, x2 = 0, x3 = 0 | 6.7e-05

CC(=O)[O-].CCCC[n+]1ccn(C)c1 + NCCCNCCCN + O
viscosity [mPa·s], 101 kPa
Settings | 298.15 K | 303.15 K | 308.15 K | 313.15 K | 318.15 K | 323.15 K | 328.15 K | 333.15 K
x1 = 0.03479, x2 = 0 | 2.23 | 2.18 | 2.16 | 2.13 | 1.74 | 1.58 | 1.51 | 1.24
x1 = 0.03897, x2 = 0 | 2.35 | 2.29 | 2.25 | 2.22 | 2.11 | 2.07 | 1.91 | 1.86
x1 = 0.04311, x2 = 0 | 2.66 | 2.63 | 2.56 | 2.49 | 2.29 | 2.26 | 2.02 | 1.97

CC(=O)[O-].CCCC[n+]1ccn(C)c1 + NCCN1CCNCC1 + O
viscosity [mPa·s], 101 kPa
Settings | 298.15 K | 303.15 K | 308.15 K | 313.15 K | 318.15 K | 323.15 K | 328.15 K | 333.15 K
x1 = 0.03479, x2 = 0 | 2.23 | 2.18 | 2.16 | 2.13 | 1.74 | 1.58 | 1.51 | 1.24
x1 = 0.03897, x2 = 0 | 2.35 | 2.29 | 2.25 | 2.22 | 2.11 | 2.07 | 1.91 | 1.86
x1 = 0.04311, x2 = 0 | 2.66 | 2.63 | 2.56 | 2.49 | 2.29 | 2.26 | 2.02 | 1.97

CCCC[n+]1ccn(C)c1.F[B-](F)(F)F + NCCNCCN
101.3 kPa, x1 = 1
Settings | viscosity [mPa·s]
298.15 K | 101.1
303.15 K | 81.9
308.15 K | 63.6

CCCC[n+]1ccn(C)c1.F[B-](F)(F)F + NCCO + O
viscosity [mPa·s], 101 kPa
Settings | 293.15 K | 298.15 K | 303.15 K | 308.15 K | 313.15 K | 318.15 K | 323.15 K | 328.15 K | 333.15 K
x1 = 0.0337, x2 = 0.2024 | 7 | 5.5 | 4.5 | 3.8 | – | – | – | – | –
x1 = 0.0792, x2 = 0.1188 | 6.1 | 4.7 | 4 | 3.4 | – | – | – | – | –
x1 = 0.0977, x2 = 0.2442 | – | – | 7.3 | 6 | 5.1 | 4.3 | 3.7 | – | –
x1 = 0.1701, x2 = 0.3402 | – | – | – | 9 | 7.6 | 6.5 | 5.5 | 4.7 | 4.1

CCCC[n+]1ccn(C)c1.F[B-](F)(F)F + N[C@@H](Cc1c[nH]cn1)C(=O)O + O
viscosity [mPa·s], 100 kPa
Settings | 293.15 K | 298.15 K | 303.15 K | 308.15 K | 313.15 K | 318.15 K
x2 = 0, x1 = 0.0003603 | 1.03 | 0.917 | 0.835 | 0.751 | 0.693 | 0.638
x2 = 0, x1 = 0.0007203 | 1.062 | 0.951 | 0.868 | 0.789 | 0.736 | 0.681
x2 = 0, x1 = 0.00108 | 1.093 | 0.983 | 0.904 | 0.83 | 0.779 | 0.725

COCC[n+]1ccn(C)c1.O=S(=O)([N-]S(=O)(=O)C(F)(F)F)C(F)(F)F + O
101 kPa, x1 = 0.838
Settings | electrical conductivity [S/m] | viscosity [mPa·s]
283 K | – | 66.6
298.15 K | 0.58 | –
